Reference: US20070122400A1, “Composition having liver function protecting effect” (priority 2003, published 2007)

Assays:
[1] = tested on: liver dysfunction model using carbon tetrachloride; test: liver dysfunction model using carbon tetrachloride, plasma GPT activity; assay type: in vivo, male SD rats; conditions: rats; for GPT activity in the plasma sample, relative to the control group: 100 mg/kg oral in soy oil about 17 h before 50% carbon tetrachloride 2.0 ml/kg i.p., plasma 24 hours after carbon tetrachloride, n=4; for GPT activity in the plasma, rank among the groups: 100 mg/kg oral, 24 hours after carbon tetrachloride, same tendency at 48 hours and 72 hours, control group highest
Experimental: The effects of coenzyme Q10 on protecting liver functions from disorders and preventing liver dysfunctions were examined by establishing a liver dysfunction model using carbon tetrachloride. A soy oil solution of oxidized coenzyme Q10 or reduced coenzyme Q10 with approximately 2% of oxidized coenzyme Q10 was orally administered to male SD rats (6 weeks old) at a dosage of 100 mg/kg. About 16 hours after the administration, blood was collected from the jugular vein using heparin as an anticoagulant. After one hour, 50% carbon tetrachloride (product of Nacalai Tesque, Inc.)/olive oil (product of Wako Pure Chemical Industries, Ltd.) was intraperitoneally administered at a dosage of 2.0 ml/kg. Blood was collected 24 hours, 48 hours, and 72 hours after the administration of carbon tetrachloride. The collected blood samples were centrifuged to obtain plasma samples. The GPT activity of each plasma sample was measured using a kit, Transaminase CII-Test Wako (product of Wako Pure Chemical Industries, Ltd.).

[2] = tested on: Liver dysfunction induced by carbon tetrachloride; conditions: rats, intraperitoneal administration; cited from earlier work
[3] = rats, daily dosage of 1,200 mg/kg continuously for 52 weeks; cited from earlier work

| SMILES | GPT activity in the plasma sample, relative to the control group [1] | GPT activity in the plasma, rank among the groups [1] | liver dysfunction induced by carbon tetrachloride [2] | toxic effects in chronic toxicity test [3] |
| --- | --- | --- | --- | --- |
| COc1c(O)c(C)c(C/C=C(\C)CC/C=C(\C)CC/C=C(\C)CC/C=C(\C)CC/C=C(\C)CC/C=C(\C)CC/C=C(\C)CC/C=C(\C)CC/C=C(\C)CCC=C(C)C)c(O)c1OC [reduced coenzyme Q10] | about 25 % of the control group | the lowest |  |  |
| COC1=C(OC)C(=O)C(C/C=C(\C)CC/C=C(\C)CC/C=C(\C)CC/C=C(\C)CC/C=C(\C)CC/C=C(\C)CC/C=C(\C)CC/C=C(\C)CC/C=C(\C)CCC=C(C)C)=C(C)C1=O [oxidized coenzyme Q10] | about 60 % of the control group | the next highest | suppressed |  |
| COC1=C(OC)C(=O)C(C/C=C(\C)CC/C=C(\C)CC/C=C(\C)CC/C=C(\C)CC/C=C(\C)CC/C=C(\C)CC/C=C(\C)CC/C=C(\C)CC/C=C(\C)CCC=C(C)C)=C(C)C1=O [Coenzyme Q10] |  |  |  | no toxic effects |
